Laboratory results published in article PMC3545969, “Mutagenicity and antimutagenicity of (−)-hinokinin a trypanosomicidal compound measured by Salmonella microsome and comet assays” (BMC Complementary and Alternative Medicine, 2012).
Like-named read-outs stand apart in the source and are kept apart here. Marks after values point to notes of the source that are not given here.

Legend:
epimastigote forms = settings: compared with benznidazole; cited from earlier work
V79 cells = test: Comet assay, antigenotoxicity against DXR in V79 cells; type: cell-based, Chinese hamster; parameters: Class 0 / Class 1 / Class 2 / Class 3: unit not given here; settings: 3 h
Procedure: Chinese hamster lung fibroblasts (V79) were kindly supplied by Professor Cólus (Universidade Estadual de Londrina (UEL), Paraná, Brazil). Cells were maintained as monolayers in plastic culture flasks (25 cm^2) in HAM-F10 (Sigma-Aldrich) plus DMEM (Sigma-Aldrich, 1:1) culture medium supplemented with 10%; fetal bovine serum (Nutricell), antibiotics (0.01 mg mL^−1 streptomycin and 0.005 mg mL^−1 penicillin; Sigma-Aldrich) and 2.38 mg mL^−1 Hepes (Sigma-Aldrich), at 37°C in a BOD-type chamber. Under these conditions, the average cell cycle time was 12 h.
HK was first dissolved in a mixture of methanol (100 μL) and distilled water (900 μL). The final concentration of methanol in the culture was 0.1%;. The choice of concentrations was based on the results of previous experiments with HK [12]. In the experiments, 3 × 10^5 cells (V79) were seeded into tissue-culture flasks, incubated for two cycles (24 h) in complete HAM-F10/DMEM medium, washed with phosphate buffer saline (PBS), and then subjected to one of the following treatments, in serum-free medium, for 3 h. To assess genotoxicity, the cells were treated with each concentration of HK alone, while for antigenotoxicity, they were treated with the mutagen DXR (0.3 μM) in combination with each HK concentration. Positive (DXR) and negative controls were also included in the test. At the end of the treatment, the cells were washed with ice-cold PBS and trypsinized with 200 μL trypsin. After 3 min, the cells were gently resuspended in complete medium and 20 μL of the cell suspension was immediately used for the test.
The procedures described by Singh et al. were adopted, with minor modifications, as described in detail by Speit and Hartmann and reviewed by Burlinson et al.. Briefly, a microscope slide was covered with a base layer of 1.5%; normal-melting agarose (Invitrogen) and 20 μL of the test cells suspended in 120 μL 0.5%; low-melting agarose (Invitrogen) at 37°C was then spread over the base layer. A coverslip was added and the agarose allowed to solidify at 4°C for 15 min. Next, the coverslip was gently removed and the slides were immersed in freshly prepared lysing solution consisting of 89 mL stock solution (2.5 M NaCl, 100 mM EDTA, 10 mM Tris, pH 10.0, and 1%; sodium lauryl sarcosine), 10 mL DMSO and 1 mL Triton X-100, pH 10.0, at 4°C, for at least 20 h, protected from light. At the end of this period, the slides were transferred to an electrophoresis chamber containing a high pH (>13.0) buffer (300 mM NaOH, 1 mM EDTA) and incubated at 4°C for 20 min to allow the DNA to unwind. A current of 25 V (1.0 V cm^−1, 300 mA) was applied for 20 min. The slides were then submerged in a neutralization buffer (0.4 M Tris - HCl, pH 7.5) for 15 min, dried at room temperature and fixed in 100%; ethanol for 10 min.
The slides were stained with 100 μL ethidium bromide (20 μg ml^−1) and covered with a coverslip. All the slides in the experiment were coded before analysis. The stained nucleoids were immediately evaluated at 1000x magnification under a Nikon fluorescence microscope fitted with a 515–560 nm excitation filter and a 590 nm barrier filter.
For each treatment, the extent and distribution of DNA damage indicated by the comet assay were evaluated by examining 100 randomly selected and non-overlapping cells on the slides (i.e. 300 nucleoids per treatment). For each slide, the cells were visually scored and allocated to one of four classes (0, 1, 2 and 3), according to tail size, as follows: class 0, undamaged, no tail; class 1, a short tail whose length was smaller than the diameter of the comet head (nucleus); class 2, tail length between 1 and 2 times the diameter of the head; and class 3, maximally damaged: a long tail measuring more than twice the diameter of the head. The few comets containing no head and those with almost all DNA in the tail, or with a very wide tail, were excluded from the analysis since they may arise from dead cells. […]

[1] = system: Salmonella typhimurium TA100

O=C1OC[C@H](Cc2ccc3c(c2)OCO3)[C@H]1Cc1ccc2c(c1)OCO2 [HK, (−)-hinokinin]
trypanosomicidal activity against epimastigote forms (epimastigote forms): higher trypanosomicidal activity than benznidazole | Class 0 (V79 cells; HK 0.5 μM + DXR 0.3 μM): 73.0 ± 7.0 | Class 1 (V79 cells; HK 0.5 μM + DXR 0.3 μM): 20.0 ± 7.5 | Class 2 (V79 cells; HK 0.5 μM + DXR 0.3 μM): 4.6 ± 1.5 | Class 3 (V79 cells; HK 0.5 μM + DXR 0.3 μM): 2.0 ± 2.0 | Reduction % (of DXR-induced DNA damage) (V79 cells; HK 0.5 μM + DXR 0.3 μM): 76.0% | Score (V79 cells; HK 0.5 μM + DXR 0.3 μM): 36.0 ± 6.1^a,b | Class 0 (V79 cells; HK 1.0 μM + DXR 0.3 μM): 68.0 ± 2.0 | Class 1 (V79 cells; HK 1.0 μM + DXR 0.3 μM): 20.6 ± 2.5 | Class 2 (V79 cells; HK 1.0 μM + DXR 0.3 μM): 8.0 ± 2.0 | Class 3 (V79 cells; HK 1.0 μM + DXR 0.3 μM): 3.3 ± 0.5 | Reduction % (of DXR-induced DNA damage) (V79 cells; HK 1.0 μM + DXR 0.3 μM): 60.8% | Score (V79 cells; HK 1.0 μM + DXR 0.3 μM): 46.0 ± 3.0^a,b | Class 0 (V79 cells; HK 2.0 μM + DXR 0.3 μM): 65.0 ± 6.8 | Class 1 (V79 cells; HK 2.0 μM + DXR 0.3 μM): 27.0 ± 6.6 | Class 2 (V79 cells; HK 2.0 μM + DXR 0.3 μM): 4.3 ± 2.3 | Class 3 (V79 cells; HK 2.0 μM + DXR 0.3 μM): 2.6 ± 1.6 | Reduction % (of DXR-induced DNA damage) (V79 cells; HK 2.0 μM + DXR 0.3 μM): 63.4% | Score (V79 cells; HK 2.0 μM + DXR 0.3 μM): 44.3 ± 9.2^a,b | Class 0 (V79 cells; HK 32 μM + DXR 0.3 μM): 35.0 ± 5.0 | Class 1 (V79 cells; HK 32 μM + DXR 0.3 μM): 33.0 ± 3.0 | Class 2 (V79 cells; HK 32 μM + DXR 0.3 μM): 30.0 ± 4.1^b | Class 3 (V79 cells; HK 32 μM + DXR 0.3 μM): 1.0 ± 1.0 | Score (V79 cells; HK 32 μM + DXR 0.3 μM): 97.0 ± 10.0^a | Class 0 (V79 cells; HK 64 μM + DXR 0.3 μM): 32.0 ± 6.1 | Class 1 (V79 cells; HK 64 μM + DXR 0.3 μM): 39.0 ± 3.7 | Class 2 (V79 cells; HK 64 μM + DXR 0.3 μM): 26.0 ± 2.0 | Class 3 (V79 cells; HK 64 μM + DXR 0.3 μM): 2.0 ± 2.0 | Score (V79 cells; HK 64 μM + DXR 0.3 μM): 97.0 ± 10.0^a | Class 0 (V79 cells; HK […] + DXR 0.3 μM): 28.0 ± 6.6 | Class 1 (V79 cells; HK […] + DXR 0.3 μM): 40.0 ± 1.0 | Class 2 (V79 cells; HK […] + DXR 0.3 μM): 29.0 ± 5.2^b | Class 3 (V79 cells; HK […] + DXR 0.3 μM): 3.0 ± 2.5 | Score (V79 cells; HK […] + DXR 0.3 μM): 106.0 ± 16.0^a | MI (mutagenicity index) ([1]; TA 100, + S9, HK 19.5 μg/plate): 1.0 | Number of revertants(M ± SD)/ plate ([1]; TA 100, + S9, HK 19.5 μg/plate): 128 ± 6 revertants/plate | MI (mutagenicity index) ([1]; TA 100, + S9, HK 39.0 μg/plate): 0.9 | Number of revertants(M ± SD)/ plate ([1]; TA 100, + S9, HK 39.0 μg/plate): 115 ± 8 revertants/plate | MI (mutagenicity index) ([1]; TA 100, + S9, HK 58.5 μg/plate): 1.1 | Number of revertants(M ± SD)/ plate ([1]; TA 100, + S9, HK 58.5 μg/plate): 134 ± 2 revertants/plate | MI (mutagenicity index) ([1]; TA 100, + S9, HK 78.0 μg/plate): 1.0 | Number of revertants(M ± SD)/ plate ([1]; TA 100, + S9, HK 78.0 μg/plate): 120 ± 8 revertants/plate | MI (mutagenicity index) ([1]; TA 100, - S9, HK 19.5 μg/plate): 1.0 | Number of revertants(M ± SD)/ plate ([1]; TA 100, - S9, HK 19.5 μg/plate): 129 ± 6 revertants/plate | MI (mutagenicity index) ([1]; TA 100, - S9, HK 39.0 μg/plate): 1.0 | Number of revertants(M ± SD)/ plate ([1]; TA 100, - S9, HK 39.0 μg/plate): 134 ± 5 revertants/plate | MI (mutagenicity index) ([1]; TA 100, - S9, HK 58.5 μg/plate): 0.8 | Number of revertants(M ± SD)/ plate ([1]; TA 100, - S9, HK 58.5 μg/plate): 112 ± 3 revertants/plate | MI (mutagenicity index) ([1]; TA 100, - S9, HK 78.0 μg/plate): 1.1 | Number of revertants(M ± SD)/ plate ([1]; TA 100, - S9, HK 78.0 μg/plate): 140 ± 9 revertants/plate
